Laboratory results reported in article PMC11881437 (Molecular Medicine, 2025).

Legend:
[1] = tested on: chick chorioallantoic membrane; experiment: Chick chorioallantoic membrane (CAM) assay with conditioned medium of CES; conditions: CM of treated CES, day 4 vs day 1
Procedure: HCT116 CRC cells were grown in ultra-low attachment plate in 3dGRO™ Spheroid Medium (Sigma-Aldrich, USA) for 7 days. Spheroids enriched with CSCs were considered as CSC enriched spheres (CESs) or commonly referred as tumorospheres. After 7 days, tumorospheres were subjected to different treatments for 24 h, as per experimental protocol. Media of tumorospheres of all the treatment groups were collected, centrifuged to remove the cell debris and suspended spheres, supernatants were collected and vacuum concentrated. These supernatants were referred as conditioned medium (CM) and were stored at − 20 °C until use. To investigate the role of CSC on angiogenesis, a modified chick chorioallantoic membrane assay was carried out. Briefly, 100 µl CM of treated and untreated spheres were mixed with 1.5 mg/ml type I collagen (Gibco, USA). 10 µl of the mixture were loaded on the piece of 13 mm Thermanox discs (Nunc, Denmark) and permitted to get polymerize. The disc was then applied to the chorioallantoic membrane of a 4 days-old embryo. After 72 h of incubation, the area around the loaded disc was photographed with a digital camera, and the numbers of newly formed vessels were counted by two observers in a double-blind manner (Min et al. [2004]).

VEGFA = experiment: ELISA of VEGFA secreted into conditioned medium of CES; type: cell-based, human
Procedure: HCT116 CRC cells were grown in ultra-low attachment plate in 3dGROTM Spheroid Medium (Sigma-Aldrich, USA) for 7 days. Spheroids enriched with CSCs were considered as CSC enriched spheres (CESs) or commonly referred as tumorospheres. After 7 days, tumorospheres were subjected to different treatments for 24 h, as per experimental protocol. Media of tumorospheres of all the treatment groups were collected, centrifuged to remove the cell debris and suspended spheres, supernatants were collected and vacuum concentrated. These supernatants were referred as conditioned medium (CM) and were stored at - 20 °C until use. Concentration of the secreted VEGFA was measured using the ELISA kit according to the manufacturer's instruction ([…] BioSystems, India) in CM of CESs as well as in the media of transfected and non-transfected HCT116.

[2] = Hepatic oxidative parameters and liver/kidney histopathology, 10 days treatment; type: in vivo, BALB/c mice; conditions: 5 mg/kg b.w i.v.; for kidney histopathology / liver histopathology: H&E
Procedure: (§1) To determine the toxicity of only Orientin treatment in various doses, the mice were divided into five groups. Each group contained six animals (n = 6). Each animal of the vehicle control group (VC) was left untreated, while, mice of other four groups were administered Orientin intravenously with 1 mg/kg b.w, 3 mg/kg b.w, 5 mg/kg b.w and 10 mg/kg b.w dosage respectively for 28 days. […] All the treatments were continued for 10 days. On day 11 all the mice were sacrificed and different parameters were studied.
Values of all the parameters were calculated with respect to the amount of total protein present in liver homogenates.
Various organs and solid tumors collected after sacrificing the mice were embedded into paraffin after 10% neutral buffered formalin fixation. 4 μm sections were prepared and used for histopathological study.

[3] = tested on: CT26 cell induced solid tumor; experiment: CT26 syngeneic colorectal tumor model; type: in vivo, BALB/c mice; conditions: for tumor volume: 10 days, Orientin 5 mg/kg b.w/day i.v., 5FU 5 mg/kg b.w i.v. alternate day; for tumor volume / survival (Kaplan Meier): vs control; for tumor tissue histopathology: H&E; for number of blood vessels in tumor tissue: H&E sections; for CD44+/CD133+ cells in tumor tissue / HIF1α and VEGFA expression in tumor: immunofluorescence; for survival (Kaplan Meier): tumor bearing mice
Procedure: To set up therapeutic in vivo model, CT26 cells (2 × 10^6 cells/animal), syngeneic to BALB/c mice were injected subcutaneously to the right hind limb of the each animal. Palpable tumor was formed after 10 days. […] Six mice from each group were sacrificed on day 11 and the others were left for performing survivability assay using Kaplan–Meier method (Hajra et al. [2018a]).
(§2) Various organs and solid tumors collected after sacrificing the mice were embedded into paraffin after 10% neutral buffered formalin fixation. 4 μm sections were prepared and used for histopathological study. Standard Hematoxylin and Eosin (H&E) staining protocol was used and sections were visualized under light microscope (DM 1000, Leica, Germany) (Hajra et al. [2018a]).
Immunofluorescence assay was carried out as described previously (Shimizu et al. [2023]). Tissue sections were blocked with 3% BSA and incubated with primary antibodies like HIF1α, VEGFA, CD44 (Thermo Fisher Scientific, USA) and CD133 (Abcam, USA) at room temperature for 2 h. Alexa fluor 488 and Alexa fluor 594 tagged secondary (Thermo Fisher Scientific, USA) antibodies were added to all the tissue sections for 1 h followed by DAPI staining and images were visualized under fluorescence microscope (Olympus BX53, Japan).

HIF1α, VEGFA, NF-ĸB = experiment: Western blot of HIF1α, VEGFA and NF-ĸB in CES; type: cell-based, human; conditions: 24 h
Procedure: Cells were incubated with Brefeldin A (10 µg/ml) for 4 h before harvesting to determine VEGFA expression. Briefly, cells were lysed with RIPA buffer [50 mmol/L Tris–HCl (pH 7.8), 150 mmol/L NaCl, 1% Triton X-100, 0.1% SDS, 0.5% sodium deoxycholate, and 1 mmol/L EDTA] containing complete protease inhibitor cocktail. Equal amount of protein was electrophoresed on SDS-PAGE and electro transferred onto polyvinylidene difluoride (PVDF) membranes using Bio-Rad mini gel apparatus. The membranes were probed with OCT4 (Thermo Fisher Scientific, USA), SOX2 (AbCam, USA), NANOG (Thermo Fisher Scientific, USA), HIF1α (Thermo Fisher Scientific, USA) and VEGFA (Thermo Fisher Scientific, USA) and NF-ĸB (Santa Cruz Biotechnology, USA) antibodies. β-Actin (Santa Cruz Biotechnology, USA) and α-TUBULIN (Santa Cruz Biotechnology, USA) antibodies were used as loading control. Then, the blots were probed with HRP tagged secondary antibodies. Signals were detected with the ECL system (Promega, USA) and images were captured in iBright™ CL1500 Imaging System.

HIF1α, VEGFA = experiment: Western blot and immunocytochemistry in HIF1α transfected HCT116 cells; type: cell-based, human
Procedure: HCT116 cells were transiently transfected with HA-HIF1α-pcDNA3 plasmid (Addgene, USA, Plasmid #18949) by using lipofectamineTM 2000 (Thermo Fisher Scientific, USA) according to the manufacturer’s instructions. After 24 h of transfection, those cells were subjected to various experiments.

[4] = Toxicity of Orientin alone in mice, 28 days; type: in vivo, BALB/c mice
Procedure: as §1
Glutathione-S-transferase (GST), superoxide dismutase (SOD), Catalase (CAT), Glutathione peroxidase (GPx) and reduced glutathione (GSH) activity in hepatic tissue were assessed as described previously (Hajra et al. [2018b]). Values of all the parameters were calculated with respect to the amount of total protein present in liver homogenates.
as §2

[5] = parameters: method as in Tan et al. [2013]; Chagas et al. [2020]; Zhang et al. [2007]; conditions: ref Tan et al. [2013]; Chagas et al. [2020]; Zhang et al. [2007]; cited from earlier work

| SMILES | number of blood vessels formed in CAM [1] | VEGFA secreted into CM of CES (VEGFA) | hepatic LPO, ROS and NO [2] | hepatic GSH and activity of GST, GPx, SOD and CAT ([2]; 5FU vs vehicle control, combination vs 5FU) | kidney histopathology [2] | liver histopathology [2] | tumor volume [3] | tumor tissue histopathology [3] | number of blood vessels in tumor tissue [3] | CD44+/CD133+ cells in tumor tissue [3] | HIF1α and VEGFA expression in tumor [3] | survival (Kaplan Meier) [3] | NF-ĸB expression (HIF1α, VEGFA, NF-ĸB) | HIF1α and VEGFA expression by immunocytochemistry (HIF1α, VEGFA) | hepatic GSH and activity of GST, GPx, SOD and CAT ([4]; 5 mg/kg b.w Orientin i.v., 28 days) | hepatic LPO level ([4]; 5 mg/kg b.w Orientin i.v., 28 days, vs control) | histopathology of liver, heart, lung and kidney ([4]; 5 mg/kg b.w Orientin, vs control) | excretion [5] | metabolism [5] | tissue distribution [5] |
| --- | --- | --- | --- | --- | --- | --- | --- | --- | --- | --- | --- | --- | --- | --- | --- | --- | --- | --- | --- | --- |
| O=c1[nH]cc(F)c(=O)[nH]1 [5FU, 5-Fluorouracil, reference compound] | increase in number of blood vessel formation | stimulated | induce | reduced | distorted Bowman’s capsule, glomeruli, blood and cellular infiltration | distorted central vein, necrosis, cellular and blood infiltration | decrease in the tumor volume | cell numbers were found to be reduced | increasing blood vessels number | increased | increase | increased life span | – | – | – | – | – | – | – | – |
| O=c1cc(-c2ccc(O)c(O)c2)oc2c([C@@H]3O[C@H](CO)[C@@H](O)[C@H](O)[C@H]3O)c(O)cc(O)c12 [Orientin] | Non-significant change | – | – | – | did not induce any toxicity | remained normal | decrease in the tumor volume | lost their compactness | reduced | reduction | decreased | increased life span | downregulated | reduced | increase | significantly decreased | no histopathological changes | excreted primarily through urine | hepatic metabolism via CYP450 enzymes | widely distributed in different tissues |
